Laboratory results: ChEMBL document CHEMBL6087426, “Design, synthesis and bioactivity evaluation of cinnamic acid derivatives as potential anti-inflammatory agents against LPS-induced acute lung injury” (Bioorg Med Chem Lett, 2025)
Calls of active or inactive are those of the source. The rule behind the calls is not given here.

What was measured:
J774.A1 [1] = assay: Anti-inflammatory activity against mouse J774.A1 cells assessed as inhibition of LPS-induced IL-6 production at 10 uM preincubated for 30 mins followed by LPS stimulation for 24 hrs by ELISA relative to control; format: functional; conditions: time 24.5 hrs
J774.A1 [2] = assay: Anti-inflammatory activity against mouse J774.A1 cells assessed as inhibition of LPS-induced IL-6 production preincubated for 30 mins followed by LPS stimulation for 24 hrs by ELISA; format: functional, cell-based
Mus musculus [3] = assay: Anti-inflammatory activity in C57BL/6 mouse assessed as decrease in LPS-induced interstitial edema in lung tissue at 20 mg/kg pretreated for 30 mins followed by LPS stimulation for 6 hrs by H and E staining based analysis; format: functional, organism-based; conditions: time 6.5 hrs
Mus musculus [4] = assay: Anti-inflammatory activity in C57BL/6 mouse assessed as decrease in LPS-induced destruction in lung tissue at 20 mg/kg pretreated for 30 mins followed by LPS stimulation for 6 hrs by H and E staining based analysis; format: functional, organism-based; conditions: time 6.5 hrs
J774.A1 [5] = assay: Cytotoxicity against mouse J774.A1 cells assessed as cell survival at 10 uM by MTT assay; format: toxicity, cell-based; conditions: j774.a1, 10 µM
Mus musculus [6] = assay: Anti-inflammatory activity in C57BL/6 mouse assessed as decrease in LPS-induced total protein level in BALF at 20 mg/kg pretreated for 30 mins followed by LPS stimulation for 6 hrs; format: functional, organism-based; conditions: time 6.5 hrs
Mus musculus [7] = assay: Anti-inflammatory activity in C57BL/6 mouse assessed as decrease in LPS-induced macrophage infiltration in lung tissue at 20 mg/kg pretreated for 30 mins followed by LPS stimulation for 6 hrs by IHC analysis; format: functional, organism-based; conditions: time 6.5 hrs
Mus musculus [8] = assay: Anti-inflammatory activity in C57BL/6 mouse assessed as decrease in LPS-induced thickened alveolar septa in lung tissue at 20 mg/kg pretreated for 30 mins followed by LPS stimulation for 6 hrs by H and E staining based analysis; format: functional, organism-based; conditions: time 6.5 hrs
Mus musculus [9] = assay: Anti-inflammatory activity in C57BL/6 mouse assessed as decrease in LPS-induced wet to dry ratio in lung tissue at 20 mg/kg pretreated for 30 mins followed by LPS stimulation for 6 hrs; format: functional, organism-based; conditions: time 6.5 hrs
Mus musculus [10] = assay: Anti-inflammatory activity in C57BL/6 mouse assessed as decrease in LPS-induced pulmonary congestion in lung tissue at 20 mg/kg pretreated for 30 mins followed by LPS stimulation for 6 hrs by H and E staining based analysis; format: functional, organism-based; conditions: time 6.5 hrs
Mus musculus [11] = assay: Anti-inflammatory activity in C57BL/6 mouse assessed as decrease in LPS-induced TNF-alpha level in serum at 20 mg/kg pretreated for 30 mins followed by LPS stimulation for 6 hrs by ELISA; format: functional, organism-based; conditions: time 6.5 hrs
Mus musculus [12] = assay: Anti-inflammatory activity in C57BL/6 mouse assessed as decrease in LPS-induced inflammatory infiltration in lung tissue at 20 mg/kg pretreated for 30 mins followed by LPS stimulation for 6 hrs by H and E staining based analysis; format: functional, organism-based; conditions: time 6.5 hrs
Mus musculus [13] = assay: Anti-inflammatory activity in C57BL/6 mouse assessed as decrease in LPS-induced IL-6 level in serum at 20 mg/kg pretreated for 30 mins followed by LPS stimulation for 6 hrs by ELISA; format: functional, organism-based; conditions: time 6.5 hrs
Mus musculus [14] = assay: Anti-inflammatory activity in C57BL/6 mouse assessed as decrease in LPS-induced TNF-alpha level in BALF at 20 mg/kg pretreated for 30 mins followed by LPS stimulation for 6 hrs by ELISA; format: functional, organism-based; conditions: time 6.5 hrs
Mus musculus [15] = assay: Anti-inflammatory activity in C57BL/6 mouse assessed as decrease in LPS-induced IL-6 level in BALF at 20 mg/kg pretreated for 30 mins followed by LPS stimulation for 6 hrs by ELISA; format: functional, organism-based; conditions: time 6.5 hrs

## COc1ccc(-c2csc(NC(=O)c3ccccc3C)n2)cc1OC
J774.A1 [1]
  inhibition at 10 µM: 36.8%

## O=C(/C=C/c1ccccc1)Nc1ncc(-c2ccc(C3CCCCC3)cc2)s1
J774.A1 [1]
  inhibition at 10 µM: 51.9%

## O=C(/C=C/c1ccccc1)Nc1nc2ccccc2s1
J774.A1 [2]
  IC50: 1060 nM
J774.A1 [2]; dose 1.25-10 µM, time 24.5 hrs
  inhibition: Dose-dependent-effect
Mus musculus [3]
  Activity: Active
Mus musculus [4]
  Activity: Active
J774.A1 [5]
  Activity: Non-toxic
J774.A1 [1]
  inhibition at 10 µM: 79.6%
Mus musculus [6]
  Activity: Active
Mus musculus [7]
  Activity: Active
Mus musculus [8]
  Activity: Active
Mus musculus [9]
  Activity: Active
Mus musculus [10]
  Activity: Active
Mus musculus [11]
  Activity: Active
Mus musculus [12]
  Activity: Active
Mus musculus [13]
  Activity: Active
Mus musculus [14]
  Activity: Active
Mus musculus [15]
  Activity: Active

## COc1ccc(-c2csc(NC(=O)c3ccc(F)cc3Cl)n2)cc1OC
J774.A1 [1]
  inhibition at 10 µM: 23.3%

## CCOc1ccc(-c2cnc(NC(=O)/C=C/c3ccccc3)s2)cc1
J774.A1 [1]
  inhibition at 10 µM: 37.6%

## O=C(/C=C/c1ccccc1)Nc1ncc(-c2ccc(Br)cc2)s1
J774.A1 [1]
  inhibition at 10 µM: 21.6%

## COc1ccc(-c2csc(NC(=O)c3cccc(Br)c3)n2)cc1OC
J774.A1 [1]
  inhibition at 10 µM: 19.8%

## COc1ccc(-c2csc(NC(=O)c3cccc(F)c3)n2)cc1OC
J774.A1 [1]
  inhibition at 10 µM: 19.5%

## COc1ccc(-c2cnc(NC(=O)/C=C/c3ccccc3)s2)cc1OC
J774.A1 [1]
  inhibition at 10 µM: 53%

## COc1ccc(-c2csc(NC(=O)c3ccc(Cl)c([N+](=O)[O-])c3)n2)cc1OC
J774.A1 [5]
  Activity: Toxic
J774.A1 [1]
  inhibition at 10 µM: 64.1%

## COc1cc(-c2cnc(NC(=O)/C=C/c3ccccc3)s2)cc(OC)c1OC
J774.A1 [5]
  Activity: Non-toxic
J774.A1 [1]
  inhibition at 10 µM: 72.7%

## O=C(O)/C=C/c1ccccc1 [CINNAMIC ACID]
J774.A1 [1]
  inhibition at 10 µM: 26.4%

## O=C(/C=C/c1ccccc1)Nc1ncc(-c2cccc([N+](=O)[O-])c2)s1
J774.A1 [1]
  inhibition at 10 µM: 36.5%

## COc1ccc(-c2csc(NC(=O)c3ccc(C)cc3)n2)cc1OC
J774.A1 [1]
  inhibition at 10 µM: 38.8%

## C[C@@H]1C[C@H]2[C@@H]3CCC4=CC(=O)C=C[C@]4(C)[C@@]3(F)[C@@H](O)C[C@]2(C)[C@@]1(O)C(=O)CO
Mus musculus [6]
  Activity: Active
Mus musculus [7]
  Activity: Active
Mus musculus [9]
  Activity: Active
Mus musculus [11]
  Activity: Active
Mus musculus [13]
  Activity: Active
Mus musculus [14]
  Activity: Active
Mus musculus [15]
  Activity: Active

## COc1ccc(-c2csc(NC(=O)c3ccc(F)cc3)n2)cc1OC
J774.A1 [1]
  inhibition at 10 µM: 51.2%
